Results as given in patent publication US12171229B2, “Heteroaryl-triazole and heteroaryl-tetrazole compounds as pesticides” (BAYER AKTIENGESELLSCHAFT, priority 2018, dated 2024).

Key:
Format in all cases: in vivo
Diabrotica balteata = Diabrotica balteata spray test; conditions: Diabrotica balteata, in Triticum aestivum, 168 h, after 7 days, larvae on wheat seeds, read-out: efficacy (seedlings grown up); for pest or weed control at 160 µg/disc, 500 g/ha: 160 μg/well (=500 g/ha); for pest or weed control at 80 µg/disc, 250 g/ha: 80 μg/well (=250 g/ha)
How it was run: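 Germinated wheat seeds (5 per well, 1 day on agar) sprayed with compound diluted in water containing 1000 ppm emulsifier, then infested with 10–20 D. balteata larvae. Efficacy scored after 7 days: 100% = seedlings like untreated uninfested control, 0% = no seedlings grown.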

Meloidogyne incognita = Meloidogyne incognita test; conditions: 20 ppm; after 14 days; salad seedlings
Method: Meloidogyne incognita—Test Solvent: 125.0 parts by weight of acetone To produce a suitable preparation of active compound, 1 part by weight of active compound is mixed with the stated amount of solvent, and the concentrate is diluted with water to the desired concentration. Vessels are filled with sand, a solution of the active ingredient, a suspension containing eggs and larvae of the southern root-knot nematode (Meloidogyne incognita) and salad seeds. The salad seeds germinate and the seedlings grow. Galls develop in the roots. After 14 days the nematicidal activity is determined on the basis of the percentage of gall formation. 100% means no galls were found and 0% means the number of galls found on the roots of the treated plants was equal to that in untreated control plants.

Myzus persicae = Myzus persicae oral test; conditions: 120 h, after 5 days
How it was run: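 Aphid mortality (%) was recorded 5 days after a mixed Myzus persicae population began sucking, through parafilm, on compound solutions (acetone stock diluted with water) combined with sugar-supplemented IPL41 medium.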

Tetranychus urticae = Tetranychus urticae spray test (OP-resistant); conditions: foliar, 144 h, after 6 days, French bean leaf disks
Method: Tetranychus urticae—Spray Test (OP-Resistant)
(§1) To produce a suitable preparation of active compound, 1 part by weight of active compound is mixed with the stated amount of solvents and is diluted with water, containing an emulsifier concentration of 1000 ppm, to the desired concentration. Further test concentrations are prepared by dilution with emulsifier containing water.
French bean (Phaseolus vulgaris) leaf disks infected with all instars of the two spotted spidermite (Tetranychus urticae), are sprayed with a preparation of the active ingredient of the desired concentration.
After 6 days mortality in % is determined. 100% means all spider mites have been killed and 0% means none of the spider mites have been killed.

Ctenocephalides felis [1] = assay: Ctenocephalides felis in-vitro contact test, adult cat flea; conditions: 5 μg/cm^2 (=500 g/ha), after 48 hours, adult cat fleas, read-out: efficacy (fleas dead or moribund)
How it was run: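 Compound in acetone coated onto inner walls of glass tubes, e.g. 900 ppm giving 5 μg/cm². After drying, 5–10 adult C. felis added per tube and held at room temperature. At 48 h, fleas unable to escape a 45–50 °C heating plate within 5 min scored dead/moribund, giving % efficacy.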

Phaedon cochleariae = Phaedon cochleariae spray test; conditions: foliar, 168 h, after 7 days, larvae on Chinese cabbage leaf disks
Method: Phaedon Cochleariae—Spray Test
as §1
Chinese cabbage (Brassica pekinensis) leaf disks are sprayed with a preparation of the active ingredient of the desired concentration. Once dry, the leaf disks are infested with mustard beetle larvae (Phaedon cochleariae).
After 7 days mortality in % is determined. 100% means all beetle larvae have been killed and 0% means none of the beetle larvae have been killed.

Boophilus microplus = Boophilus microplus injection test; conditions: Rhipicephalus microplus, 168 h; 20 μg/animal injected into the abdomen; adult engorged female ticks; egg deposition after 7 days; read-out: efficacy (infertile eggs)
How it was run: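 Five engorged adult female ticks received a 1 μl abdominal injection of compound in DMSO. They were then held in a climate chamber, with egg deposition checked after 7 days. Unclear eggs were kept until hatching at about 42 days, and efficacy was scored as the percentage of infertile eggs.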

Ctenocephalides felis [2] = assay: Ctenocephalides felis oral test; conditions: 48 h, 100 ppm in cattle blood, after 2 days, adult unfed cat fleas
How it was run: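 About 20 unfed adult cat fleas feed through parafilm on cattle blood dosed with compound from a DMSO stock. Blood chamber at 37° C, fleas at room temperature. Percent mortality scored after 2 days.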

Spodoptera frugiperda = Spodoptera frugiperda spray test; conditions: 168 h, after 7 days, larvae on maize leaf sections
How it was run: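 Maize leaf sections were sprayed with compound formulated in solvent and diluted in water containing 1000 ppm emulsifier, then infested with fall armyworm larvae after drying. Percent mortality was scored after 7 days (100% = all caterpillars dead, 0% = none).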

[3] = test system: Aedes aegypti strain MONHEIM; assay: Aedes aegypti test (AEDSAE surface treatment & contact assay); conditions: 24 hours after contact, read-out: efficacy (mortality); for mortality at 4 mg/m2: surface concentration 4 mg/m^2, exposure 30 minutes; for mortality at 20 mg/m2: surface concentration 20 mg/m^2, exposure 30 minutes
How it was run: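 Compound dissolved in acetone (2 mg/ml) with 2000 ppm rapeseed oil methyl ester, applied to glazed tile and dried; adult strain MONHEIM mosquitoes exposed 30 minutes. Percent mortality scored 24 hours after contact.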

Nezara viridula = Nezara viridula spray test; conditions: 96 h, after 4 days, larvae on barley plants
How it was run: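 Barley plants infested with Nezara viridula larvae were sprayed with compound diluted in water containing 1000 ppm emulsifier. Percent mortality was scored 4 days later, where 100% means all bugs killed and 0% none.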

[4] = test system: Musca domestica strain WHO-N; assay: Musca domestica test (MUSCDO surface treatment & contact assay); conditions: 24 hours after contact, read-out: efficacy (mortality); for mortality at 20 mg/m2: surface concentration 20 mg/m^2, exposure 30 minutes
Method: Musca domestica test (MUSCDO surface treatment & contact assay)
(§2) Solvent: Aceton+2000 ppm rapeseed oil methyl ester (RME)
(§3) In order to produce a sufficient, active ingredient containing solution it is necessary to solve the test compound in the solvent-mix (acetone at 2 mg/ml/RME 2000 ppm). This solution is pipetted onto a glazed tile and after evaporation of the acetone, adult flies of the species Musca domestica strain WHO-N are placed onto the dried surface. The exposure time is 30 minutes.
Mortality in percent (%) is determined 24 hours after contact of the insects to the treated surface. 100% morality means that all tested insects are dead, whereas 0% means that no insect died.

Rhipicephalus sanguineus = Rhipicephalus sanguineus in-vitro contact test, adult brown dog ticks; conditions: 5 μg/cm^2 (=500 g/ha), after 48 hours, read-out: efficacy (ticks dead or moribund)
Method: Rhipicephalus Sanguineus—In-Vitro Contact Tests with Adult Brown Doe Ticks
9 mg compound is solved in 1 ml acetone and diluted with acetone to the desired concentration. 250 μl of the test solution is filled in 25 ml glass test tubes and homogeneously distributed on the inner walls by rotation and tilting on a shaking device (2 h at 30 rpm). With a compound concentration of 900 ppm, an inner surface of 44.7 cm^2 and a homogeneous distribution, a dose of 5 μg/cm^2 is achieved.
After the solvent has evaporated, each test tube is filled with 5-10 adult brown dog ticks (Rhipicephalus sanguineus), closed with a perforated lid and incubated in a lying position at room temperature and relative humidity. After 48 hours efficacy is determined. The ticks are patted on the ground of the tubes and are incubated on a heating plate at 45-50° C. for at most 5 minutes. Immotile or uncoordinated moving ticks, which are not able to escape the heat by climbing upwards, are marked as dead or moribund.
An efficacy of 100% means all ticks are dead or moribund; 0% means no ticks are dead or moribund.

[5] = test system: Culex quinquefasciatus strain P00; assay: Culex quinquefasciatus test (CULXFA surface treatment & contact assay); conditions: 24 hours after contact, read-out: efficacy (mortality)
How it was run: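 Compound dissolved in acetone (2 mg/ml) with 2000 ppm rapeseed oil methyl ester, applied to glazed tile and dried; adult C. quinquefasciatus strain P00 exposed to surface for 30 minutes. Mortality (%) scored 24 hours after contact.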

[6] = test system: Blattella germanica strain PAULINIA; assay: whole plant or invertebrate; conditions: read-out: efficacy (mortality)
Method: Blattella Germanica Test (BLTTGE Surface Treatment & Contact Assay)
as §2
as §3, with “animals” for “flies”, “Blattella germanica” for “Musca domestica”, “PAULINIA” for “WHO-N”
Mortality in percent (%) is determined 24 hours after contact of the insects to the treated surface. 100% mortality means that all tested insects are dead, whereas 0% means that no insect died.

[7] = surface concentration 4 mg/m^2, exposure 30 minutes

| SMILES | pest or weed control at 160 µg/disc, 500 g/ha (Diabrotica balteata) [%] | nematicidal activity (gall formation) (Meloidogyne incognita) [%] | mortality at 20 ppm (Myzus persicae) [%] | pest or weed control at 80 µg/disc, 250 g/ha (Diabrotica balteata) [%] | pest or weed control at 5 µg/cm2 (Ctenocephalides felis [1]) [%] | mortality at 500 g/ha (Phaedon cochleariae) [%] | pest or weed control at 0.02 mg (Boophilus microplus) [%] | mortality at 100 ppm (Ctenocephalides felis [2]) [%] | mortality at 500 g/ha (Spodoptera frugiperda) [%] | mortality at 4 mg/m2 [3] [%] | mortality at 20 mg/m2 [3] [%] | mortality at 500 g/ha (Nezara viridula) [%] | mortality at 20 mg/m2 [4] [%] | mortality at 100 g/ha (Spodoptera frugiperda) [%] | other results |
| --- | --- | --- | --- | --- | --- | --- | --- | --- | --- | --- | --- | --- | --- | --- | --- |
| COc1cc(C)nc(-n2ncnc2C(C)N(CC2CC2)C(=O)c2cc(Cl)cc(C(F)(F)F)c2)n1 (stereo not shown) [Example I-001] | 100 | 100 | – | – | – | – | – | – | – | – | – | – | – | – | – |
| Cc1cc(C)nc(-n2ncnc2C(C)N(CC2CC2)C(=O)c2cc(Cl)cc(C(F)(F)F)c2)n1 (stereo not shown) [Example I-002, 3-Chloro-N-(cyclopropylmethyl)-N-{1-[1-(4,6-dimethylpyrimidin-2-yl)-1H-1,2,4-triazol-5-yl]ethyl}-5-(trifluoromethyl)benzamide] | – | 90 | – | – | – | – | – | – | – | – | – | – | – | – | – |
| CC(c1ncnn1-c1nccs1)N(CC1CC1)C(=O)c1cc(Cl)cc(C(F)(F)F)c1 (stereo not shown) [Example I-003] | 100 | – | 90 | 100 | 100 | 100 | 100 | 100 | 100 | – | – | – | – | – | mortality at 500 g/ha (Tetranychus urticae): 90% |
| CC(c1ncnn1-c1ccn(C)n1)N(CC1CC1)C(=O)c1cc(Cl)cc(C(F)(F)F)c1 (stereo not shown) [Example I-006] | 100 | – | 100 | 100 | – | 100 | 100 | 100 | 100 | – | – | – | – | – | – |
| C[C@H](NC(=O)c1cc(Cl)cc(C(F)(F)F)c1)c1ncnn1-c1ncc(C#N)cn1 [Example I-010] | – | 100 | – | – | 100 | – | 100 | – | 100 | 90 to 100 | 90 to 100 | 100 | 90 to 100 | 100 | mortality at 4 ppm (Myzus persicae; 4 ppm): 100%; mortality at 100 g/ha (Nezara viridula; 100 g/ha): 100%; pest or weed control at 5 µg/cm2 (Rhipicephalus sanguineus): 100% |
| C[C@H](NC(=O)c1cc(Cl)cc(C(F)(F)F)c1)c1ncnn1-c1ncc(OC(F)(F)F)cn1 [Example I-011] | 100 | – | – | 100 | 100 | – | 100 | 100 | 100 | 90 to 100 | 90 to 100 | 100 | 90 to 100 | 100 | mortality at 4 mg/m2 [5, 7]: 90 to 100%; mortality at 20 mg/m2 ([5]; surface concentration 20 mg/m^2, exposure 30 minutes): 90 to 100%; mortality at 4 mg/m2 [4, 7]: 90 to 100%; mortality at 20 mg/m2 [6]: 80 to 100% |
